Reference: US6413531B1, “Potentiation of biocide activity using a diethanolamide” (Buckman Laboratories International, Inc., priority 1998, dated 2002)

Test system: Pseudomonas aeruginosa ("Ps. aeruginosa") ATCC 15442
Experiment: Antibacterial test, growth/no-growth (MIC) in liquid medium
Type: cell-based
Conditions: within the concentration range tested, i.e., up to 2000 ppm
Method: The following materials and procedure were used to determine the potentiating effect of a diethanolamide with various biocides.
(1) Pseudomonas aeruginosa (“Ps. aeruginosa”) ATCC 15442 (a bacterium)
NaCl, 8.0 g; glucose, 1.0 g; tryptone, 1.0 g; DI water, 1.0 L.
5 ml of growth medium were suspended in test tubes, and the culture medium was autoclaved at 121° C. for 20 min. Biocide stock aqueous solutions were added in each tube to give the desired biocide-diethanolamide concentrations in parts per million. No biocide was added to the control tubes. All tubes were inoculated by adding 0.1 ml of inoculum to give a bacterial concentration of about 10^6 cells/ml (10^6 spores/ml for fungal test). After each addition, the tubes were shaken vigorously to mix the contents thoroughly. All inoculated tubes were placed at 37° C. for antibacterial test and at 28° C. for antifungal test. Bacterial growth was checked after 5-7 days and fungal growth was checked after 10-14 days.
The MIC of each biocide and diethanolamide acting alone and in combination was determined on a growth-no-growth basis. Tables 1-16 present both the lowest concentrations of each biocide and diethanolamide separately for which there was no growth, and the lowest concentration of biocide in combination with diethanolamide for which there was no growth. […]

For “(RS)-1- 2-[(2,4-dichlorophenyl)-2-propyl-1,3-dioxalan-2ylmethyl]-1H-1,2,4-triazole [propiconazole]”, the antibacterial activity was “does not have any antibacterial activity”.
